Patent US20220142991A1, “METHODS AND COMPOSITIONS FOR TREATMENT OF L YSOSOMAL STORAGE DISORDER” (CHILDREN'S HOSPITAL MEDICAL CENTER, priority 2019, published 2022)

Key:
[1] = test system: 4L;C* mice; assay: Lifespan (Kaplan-Meier survival) in 4L;C* nGD mouse model; type: in vivo; conditions: rapamycin 6 mg/kg i.p. every 2 days from 2 weeks of age, untreated 59 days, buffer 60 days
Text: The 4L;C* mouse is a transgenic animal model that is viable and mimics neurological deficits analogous to subacute neuronopathic Gaucher disease (nGD). The 4L;C* mice used in this and other examples disclosed herein were generated as described in Sun et al., Hum Mol Genet. 2010 Mar. 15; 19(6): 1088-1097, the disclosure of which is incorporated herein in its entirety. In brief, saposin C deficient (C^−/−) mice were generated by introducing a Cys→Pro substitution in the saposin C region of prosaposin. […] Saposin C is an essential activator for GCase. GCase V394L (4L/4L) mice were generated by germ-line transmission of a missense point mutation in the GCase (GBA) locus encoding for V394L. Next, saposin C^−/− mice were cross-bred with point mutated GCase V394L homozygotes (4L/4L) to generate 4L/wt;C^−/+ mice. 4L;C* mice (4L/4L;C^−/−) were produced by intercrossing 4L/4L;C^+/− with 4L/4L;C^+/−. The strain background of 4L;C* was originally C57BL/6J/129SvEV and backcrossed into pure C57BL/6J strain for more than 12 generations.

[2] = test system: 4L;C* mice; assay: CD68 immunohistochemistry for activated microglia/macrophage in brain and spinal cord; type: in vivo, mouse
Text: CD68, a classic marker of activated microglia/macrophage (Korzhevskii et al., (2016) Neurosci Behav Physi 46, 284-290), was used to determine CNS inflammation by immunohistochemistry staining. […] FIG. 6A.

[3] = test system: inflammatory mediators; assay: RT-qPCR of inflammatory mediator mRNA in midbrain tissue; type: in vivo, mouse
Description: Vitner et al., (2012) Brain. 135 (Pt 6):1724-35; Dasgupta et al., (2015) Hum Mol Genet. 15; 24(24):7031-48. The highly activated microglia/and astrocyte are the main source of multiple inflammatory mediators in brain. […] The isolated mRNA was subjected to quantitative reverse transcription PCR (RT-qPCR) analysis using oligos directed toward inflammatory mediator genes of interest, including cytokine, chemokine, and inflammation-related receptors. Specifically, RT-qPCR analysis was performed to detect mRNA expression levels of the following genes: tumor necrosis factor (TNF)-alpha, interleukin (IL)-1-beta (IL-1β), IL-6, IL-17A, transforming growth factor beta (TGF-β), chemokine ligand (CCL) 5 (CCL5), CCL2, CCL22 chemokine (C-X-C motif) ligand 2 (CXCL2), intercellular adhesion molecule 1 (ICAM1), tumor necrosis factor receptor 1 (TNFR1), Cluster of Differentiation 86 (CD86), EGF-like module-containing mucin-like hormone receptor-like 1 (F4/80), component 5 (C5), and complement component 5a receptor 1 (C5AR1).

[4] = test system: 4L;C* mice; assay: FACS analysis of microglia and leukocyte populations in brain; type: in vivo, mouse; conditions: brain hemispheres
Text: Brain inflammation invariably results in a reshaping of the blood-borne leukocyte populations inhabiting the CNS. To elucidate the changes of resident immune cells (i.e., microglial cells) and infiltrated leukocytes in nGD brain and the effect rapamycin has on activation of immune cells and infiltration, flow cytometry was used to analyze different leukocyte populations in brain parenchyma, including CD45^+ cells, microglia, myeloid, lymphoid, macrophage and T cells. […] The hemispheres of the brain were separated, minced, and digested by incubation with […] collagenase IV for 30 min at 37° C. The resulting cell suspensions were then fractionated by density gradient separation using 25% Percoll® gradients at 520×g for 20 minutes. […] After removing myelin and top suspension layer, pelleted cells collected were then subjected to multicolor (5) fluorescence-activated cell sorting analysis (FACS) by co-staining with multiple antibodies that conjugated with various fluorochromes to identify microglia and subpopulations of leukocytes. FIG. 10A. […] FIG. 10B. […] FIG. 10B. […] FIG. 10B.
The frequency of microglia (CD45^intermediateCD11b^high) was increased in buffer-treated 4L;C* mice (1.9 fold) and decreased in rapamycin-treated 4L;C* mice (1.3-fold), which indicates reduced microgliosis in nGD brain. FIG. 10B. […] FIGS. 10C and 10D.

[5] = test system: 4L;C* nBMT mice; assay: FACS analysis of donor-derived GFP+ migrated cells in brain after nBMT; type: in vivo, mouse; conditions: 55 days of age
Description: Briefly, mice that express enhanced green fluorescent protein (GFP; C57BL/6 GFP/CD45.1) were used as bone marrow donors. Low-density bone marrow (LDBM) cells were harvested by flushing the hind-leg bones with Dulbecco's modified Eagle's medium (DMEM) containing 2% fetal calf serum (FCS) and 50 U penicillin/0.05 mg/mL streptomycin using a 23 G needle. The cells were passed through a 100 μm cell strainer. LDBM cells were isolated after density gradient centrifugation with Histopaque-1083. Viable cells were counted with trypan blue dye and resuspended in PBS containing 30 U/mL heparin. The recipient pups (˜3 days old of 4L;C or 4L;norm) were subjected to myelosuppressive conditioning with the chemotherapeutic agent busulfan by intraperitoneal injection at 20 mg/kg. Twenty-four hours later, the 4L;C and 4L;norm recipient pups then received about 1×10^6 GPF+ donor cells via injection into super-facial temple vein (nBMT). 4L;C nBMT mice were then given an i.p. injection of rapamycin or buffer every other days starting at 21 days of age. […] Multicolor FACS analysis was conducted as described above to analyze contribution of GFP+ migrated cells in microglia and subpopulations of leukocytes. FIG. 11A. The frequency of donor-derived GFP+ cells among different leukocyte populations in brain parenchyma was quantified, including CD45^+ cells, microglia, myeloid, lymphoid, macrophage and T cells. Table 1. In busulfan-conditioned mice, engraftment of GFP+ microglial cells was increased in 4L;C* mice compared to 4L normal mice, regardless of treatment with buffer or rapamycin. Table 1. […] FIG. 11B.

[6] = test system: 4L;C* mice; assay: Relative bodyweight in 4L;C* nGD mouse model; conditions: 6 mg/kg i.p. every 2 days, bodyweight normalized to age 30 days, untreated/buffer Day 52
Description: To assess the effect of rapamycin on nGD, rapamycin (6 mg/kg) was administered to 4L;C* mice by intraperitoneal (i.p.) injection every 2 days starting from 2-weeks of age (4L;C* rapa). […] The lifespan of the mice was monitored daily from 40 days of age until 90 days of age or until death. The Kaplan-Meier method was used to estimate survival probability and a log-rank test was used to compare the Kaplan-Meier survival curves of the four different experimental groups.
Additionally, the bodyweight the mice was measured daily from 20 days of age until 90 days of age or until death. Relative bodyweight curves were normalized by weight value of each animal at the age of 30 days.

[7] = test system: 4L;C* mice; assay: GFAP immunohistochemistry for activated astrocytes in brain; conditions: middle brain, brain stem, Day 55
Description: To visualize reactive astrocytes in nGD mice, immunohistochemistry (IHC) was performed. In brief, brains were harvested from well-perfused rapamycin treated 4L;C* mice, buffer-treated 4L;C* mice, and 4L normal mice at age of Day 55. Sagittal brain cryosections (8 um) were mounted on gelatin-coated slides, air-dried, and subjected to IHC staining using the BenchMark XT IHC/ISH staining module. For GFAP staining, the sections were incubated in buffer solution containing 0.1% trypsin for 5 minutes at room temperature. For morphometric analysis, hematoxylin-eosin co-staining was performed according to standard protocols. Endogenous peroxidase activity was quenched by incubation of the sections for 5 minutes with 3% hydrogen peroxide. Sections were incubated overnight at 4° C. in primary antibodies for GFAP rabbit polyclonal antibody. Staining was detected using biotin-labeled anti-rabbit secondary antibodies and streptavidin conjugated to horseradish peroxidase. Sections were examined with microscope using computer-assisted image analysis software.

[8] = test system: 4L;C* mice; assay: Fluoro-Jade C (FJC) staining for degenerating neurons in brain cryosections; conditions: most brain regions, Day 55, vs buffer-treated 4L;C*
Description: To visualize degenerative neurons in nGD mice, brains were harvested from well-perfused rapamycin treated 4L;C* mice, buffer-treated 4L;C* mice, and 4L normal, untreated mice at age of Day 55. Sagittal brain cryosections (10 μm) were mounted on gelatin-coated slides, air-dried, and subjected to FJC staining. The slides were first immersed in a solution containing 1% NaOH in 80% ethanol for 5 minutes. They were rinsed for 2 minutes in 70% ethanol and for 2 minutes in distilled water, then incubated in 0.06% potassium permanganate solution for 10 minutes. Following a water rinse for 2 minutes, slides were transferred to the FJC staining solution and stained for 10 minutes. The proper dilution was accomplished by first making a 0.01% stock solution of FJC dye (Chemicon, Temecula, Calif., USA) in distilled water and then adding 1 ml of the stock solution to 99 ml of 0.1% acetic acid. Slides were washed three times each for 1 minute and then air-dried on a slide warmer at 50° C. for 30 minutes. After clearing in xylene and coverslipping, sections were examined under an epifluorescence microscope.

CO[C@H]1C[C@@H]2CC[C@@H](C)[C@@](O)(O2)C(=O)C(=O)N2CCCC[C@H]2C(=O)O[C@H]([C@H](C)C[C@@H]2CC[C@@H](O)[C@H](OC)C2)CC(=O)[C@H](C)/C=C(\C)[C@@H](O)[C@@H](OC)C(=O)[C@H](C)C[C@H](C)/C=C/C=C/C=C/1C [rapamycin]
median survival [1]: 82 days
reduction of CD68+ area ([2]; all brain regions except cerebellar DCN, Day 55): 53-62%
reduction of CD68 signals ([2]; spinal cord): 56%
CCL2 mRNA expression ([3]; Day 55, buffer-treated 16.6-fold): 9 fold
CCL5 mRNA expression ([3]; Day 55, compared to normal littermates, buffer-treated 47-fold): 23 fold
frequency of microglia (CD45intermediate CD11bhigh) ([4]; buffer-treated 1.9 fold): 1.3 fold
percentage of total CD45+ cells in brain ([4]; buffer-treated 2.2-): 1.4 fold
Frequency of GFP+ cells among CD45+ [5]: 2.87
Frequency of GFP+ cells among Lymphoid [5]: 29.3
Frequency of GFP+ cells among Macrophage [5]: 19.5
Frequency of GFP+ cells among Microglia [5]: 1.56
Frequency of GFP+ cells among Myeloid [5]: 17.4
Frequency of GFP+ cells among T Cell [5]: 37.6
starting age for bodyweight to show significant difference from normal controls (4L;norm) [6]: 75 days
decrease of GFAP signal [7]: 36-74%
reduction of degenerating neuronal signals (FJC) [8]: 29-45%
